Experiments:
[1] = test system: expression of SEQ ID NO:33 in human C3A liver cell line; test: Microarray expression of SEQ ID NO:33 in compound-treated C3A liver cells; format: cell-based; details: human C3A liver cell line incubated for varying lengths of time with compound
Text: The array elements are hybridized with polynucleotides in a biological sample. The polynucleotides in the biological sample are conjugated to a fluorescent label or other molecular tag for ease of detection. After hybridization, nonhybridized nucleotides from the biological sample are removed, and a fluorescence scanner is used to detect hybridization at each array element. […] The degree of complementarity and the relative abundance of each polynucleotide which hybridizes to an element on the microarray may be assessed.
Total RNA is isolated from tissue samples using the guanidinium thiocyanate method and poly(A)^+ RNA is purified using the oligo-(dT) cellulose method. Each poly(A)^+ RNA sample is reverse transcribed using MMLV reverse-transcriptase, 0.05 pg/μl oligo-(dT) primer (21 mer), 1× first strand buffer, 0.03 units/μl RNase inhibitor, 500 μM dATP, 500 μM dGTP, 500 μM dTTP, 40 μM dCTP, 40 μM dCTP-Cy3 (BDS) or dCTP-Cy5 (Amersham Biosciences). The reverse transcription reaction is performed in a 25 ml volume containing 200 ng poly(A)^+ RNA with GEMBRIGHT kits (Incyte). Specific control poly(A)^+ RNAs are synthesized by in vitro transcription from non-coding yeast genomic DNA. […]

[2] = greater than progesterone; cited from earlier work
[3] = intranasal; greater than those produced by hydrocortisone; cited from earlier work
[4] = test system: expression of SEQ ID NO:35 in human peripheral blood mononuclear cells (PBMCs); test: Microarray expression of SEQ ID NO:35 in prednisone-treated PBMCs; format: cell-based; details: PBMCs pooled from 6 healthy donors, 5 and 25 μM, 24 hours, compared to untreated controls
Text: (§1) Full length cDNAs, Expressed Sequence Tags (ESTs), or fragments or oligomers thereof may comprise the elements of the microarray. Fragments or oligomers suitable for hybridization can be selected using software well known in the art such as LASERGENE software (DNASTAR). The array elements are hybridized with polynucleotides in a biological sample. The polynucleotides in the biological sample are conjugated to a fluorescent label or other molecular tag for ease of detection. After hybridization, nonhybridized nucleotides from the biological sample are removed, and a fluorescence scanner is used to detect hybridization at each array element. Alternatively, laser desorbtion and mass spectrometry may be used for detection of hybridization. The degree of complementarity and the relative abundance of each polynucleotide which hybridizes to an element on the microarray may be assessed. In one embodiment, microarray preparation and usage is described in detail below.
(§2) Total RNA is isolated from tissue samples using the guanidinium thiocyanate method and poly(A)^+ RNA is purified using the oligo-(dT) cellulose method. […]
(§3) Sequences of the present invention are used to generate array elements. […] Array elements are amplified in thirty cycles of PCR from an initial quantity of 1-2 ng to a final quantity greater than 5 μg. […]

[5] = test system: expression of SEQ ID NO:44 in peripheral blood mononuclear cells; test: Microarray expression of SEQ ID NO:44 in IL12-treated PBMCs; format: cell-based, human; details: PBMCs from a pool of healthy donors, 1 ng/ml, 24 hours
Text: as §1, §2, §3

Molecule: 6α-methyl-17-hydroxyprogesterone [medroxyprogesterone]
- expression of SEQ ID NO:33 [1]: reduced by at least two fold
- pharmacological activity relative to progesterone [2]: about 15 times

Molecule: C[C@H]1C[C@H]2[C@@H]3CCC4=CC(=O)C=C[C@]4(C)[C@@]3(Cl)[C@@H](O)C[C@]2(C)[C@@]1(O)C(=O)CO [beclomethasone]
- expression of SEQ ID NO:33 [1]: reduced by at least two fold
- anti-inflammatory and vasoconstrictive effects relative to hydrocortisone [3]: 5000 times

Molecule: C[C@]12C=CC(=O)C=C1CC[C@@H]1[C@@H]2C(=O)C[C@@]2(C)[C@H]1CC[C@]2(O)C(=O)CO [prednisone]
- expression of SEQ ID NO:35 [4]: decreased by at least two-fold

B1: IL12: pleiotropic cytokine produced by macrophages and B lymphocytes (protein, UniProt P29459 23-219; P29460 23-328, looked up)
Interleukin-12 subunit alpha: RNLPVATPDPGMFPCLHHSQNLLRAVSNMLQKARQTLEFYPCTSEEIDHEDITKDKTSTVEACLPLELTKNESCLNSRETSFITNGSCLASRKTSFMMALCLSSIYEDLKMYQVEFKTMNAKLLMDPKRQIFLDQNMLAVIDELMQALNFNSETVPQKSSLEEPDFYKTKIKLCILLHAFRIRAVTIDRVMSYLNAS
Interleukin-12 subunit beta: IWELKKDVYVVELDWYPDAPGEMVVLTCDTPEEDGITWTLDQSSEVLGSGKTLTIQVKEFGDAGQYTCHKGGEVLSHSLLLLHKKEDGIWSTDILKDQKEPKNKTFLRCEAKNYSGRFTCWWLTTISTDLTFSVKSSRGSSDPQGVTCGAATLSAERVRGDNKEYEYSVECQEDSACPAAEESLPIEVMVDAVHKLKYENYTSSFFIRDIIKPDPPKNLQLKPLKNSRQVEVSWEYPDTWSTPHSYFSLTFCVQVQGKSKREKKDRVFTDKTSATVICRKNASISVRAQDRYYSSSWSEWASVPCS
- expression of SEQ ID NO:44 [5]: decreased by at least two-fold

Source: patent publication US20050069877A1, “Protein modification and maintenance molecules” (priority 2001, published 2005)
